# In ChEMBL document CHEMBL1125852, “Synthesis of 4-Amino-1-(-D-ribofuranosyl)pyrrolo[2,3-d]pyridazine; an entry into a novel series of adenosine analogs” (1991):
# The source made the active and inactive calls. The rule behind the calls is not given here.
# Assays:
# [1] = tested on: Human betaherpesvirus 5; experiment: Compound was tested for cytotoxicity against human cytomegalo virus at 100 uM; NA - no activity; format: functional, organism-based
# [2] = tested on: Human betaherpesvirus 5; experiment: Compound was tested for complete inhibition of growth rate against human cytomegalo virus; format: functional
compound,measurement,setting,value
Nc1nncc2c1ccn2C1O[C@H](CO)[C@@H](O)[C@H]1O (some centres not stated),Activity,[1],inactive
same,Inhibition,[2],0.043 µM
